Publication PMC10202292, “The exquisite specificity of human protein arginine methyltransferase 7 (PRMT7) toward Arg-X-Arg sites” (PLOS ONE, 2023)
Where two headings read alike, the source gives them in different places. No end group written: not given here.

How the values were obtained:
GST-HsPRMT7 [1] = target: T1, GST-HsPRMT7 (Homo sapiens, UniProt Q9NVM4); experiment: Michaelis-Menten kinetics of peptide substrate methylation (P81 phosphocellulose paper assay); type: biochemical; parameters: key to Vmax, Michaelis-Menten best-fit value, Fig7 / Vmax, Michaelis-Menten best-fit value, Fig8: Vmax expressed as cpm (averages of cycles 2–4); settings: for Vmax, times lower than RKR: experiments of Fig 7, relative to RKR peptide; for Vmax, Michaelis-Menten best-fit value, Fig7 / Km / Vmax, Michaelis-Menten best-fit value, Fig8: 60 min, 25°C; for change of Vmax after adding 130 mM KCl: with vs without 130 mM KCl (Fig 8, Table 2), in words
T1 construct: full-length human PRMT7 (residues 1–692); 34693; host or cells: E. coli BL21 DE3
T1 sequence (Q9NVM4 1-692): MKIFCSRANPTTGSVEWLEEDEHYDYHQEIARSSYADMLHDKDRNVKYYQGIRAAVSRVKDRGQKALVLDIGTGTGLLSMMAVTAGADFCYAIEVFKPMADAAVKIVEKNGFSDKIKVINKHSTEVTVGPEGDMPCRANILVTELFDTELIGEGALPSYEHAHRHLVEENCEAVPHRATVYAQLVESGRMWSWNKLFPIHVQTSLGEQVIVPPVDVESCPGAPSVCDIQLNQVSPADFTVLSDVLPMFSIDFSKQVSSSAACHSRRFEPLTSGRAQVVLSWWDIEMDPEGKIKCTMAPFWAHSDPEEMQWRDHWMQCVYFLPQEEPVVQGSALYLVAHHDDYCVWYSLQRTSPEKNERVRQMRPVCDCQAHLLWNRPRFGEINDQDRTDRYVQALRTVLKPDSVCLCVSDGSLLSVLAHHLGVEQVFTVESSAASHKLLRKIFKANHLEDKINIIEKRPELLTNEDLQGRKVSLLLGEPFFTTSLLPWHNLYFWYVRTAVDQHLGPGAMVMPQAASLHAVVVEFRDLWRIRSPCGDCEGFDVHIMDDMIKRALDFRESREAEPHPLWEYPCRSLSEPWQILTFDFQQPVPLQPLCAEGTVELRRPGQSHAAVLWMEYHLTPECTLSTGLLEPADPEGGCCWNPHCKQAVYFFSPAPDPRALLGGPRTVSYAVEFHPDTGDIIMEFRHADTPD
Procedure: (§1) In vitro methylation assays were performed with GST-HsPRMT7, the indicated substrate protein or peptide, and 1.4 μM S-adenosyl-L-[methyl-^3H]methionine ([^3H]-AdoMet; PerkinElmer cat no. NET155V), prepared from diluting a stock of 7.0 μM [^3H]-AdoMet (81.9 Ci/mmol, 1 mCi/mL in 9:1 10 mM H2SO4:EtOH, v/v) in 10 mM HCl. All reactions were performed using distilled water buffered with 50 mM potassium HEPES, pH 9.5 and 1 mM DTT, reaching a final reaction volume of 30 μL. The reactions were initiated by adding [^3H]-AdoMet to a final concentration of 0.14 μM. Control reactions (enzyme-only, substrate-only) contained distilled water instead of substrate or GST-HsPRMT7, respectively. After initiation with [^3H]-AdoMet, all reactions analyzed via P81 phosphocellulose filter paper assay were incubated in a water bath at 25°C unless otherwise indicated for the specified time periods and were terminated with 0.5 μL 100% (w/v) trifluoroacetic acid (TFA). P81 assays performed at t = 0 were individually terminated immediately following initiation. Samples analyzed via SDS-PAGE were incubated at 4°C for 24 hours and were quenched by adding 5x SDS sample loading buffer (250 mM Tris-HCl, pH 6.8; 10% SDS, 30% glycerol, 10% β-mercaptoethanol, 0.2% bromophenol blue), followed by heating at 97°C for 3 min.
(§2) In vitro methylation assays with GST-HsPRMT7, selected methyl-accepting substrates, and [^3H]-AdoMet were set up as described previously and performed in triplicate. Following incubation at 25°C unless otherwise indicated for the time periods specified, all samples were quenched with 0.5 μL 100% TFA and centrifuged at 9,300 g for 10 seconds in an Eppendorf centrifuge (Model 5417C). 1 cm^2 pieces of P81 phosphocellulose filter paper (LabAlley catalog no. 05-717-2A) were spotted with 25 μL from each reaction mixture and set to dry overnight. The following day, all filter paper pieces were washed three times with 50 mM sodium bicarbonate solution, pH 9.0, and dried again in liquid scintillation vials. After 5 mL of Safety Solve fluor (RPI industries) was added to each vial, [^3H] radioactivity in each sample was quantified via liquid scintillation counter (Beckman LS6500) for four total cycles at 5 minutes per sample. All data presented are expressed as averages of the cpm from cycles 2–4.
(§3) Statistical analyses were performed using the “Analyze Data” function on GraphPad Prism v.8.0.1. To determine statistical significance, unpaired homoscedastic two-tailed Student’s t tests were performed with significance level α = 0.05 with the relevant data. To obtain apparent km and Vmax values, kinetic data were analyzed by non-linear regression using the Michaelis-Menten equation.

GST-HsPRMT7 [2] = target: T1, GST-HsPRMT7; experiment: P81 phosphocellulose filter paper methylation assay with peptide substrates (cpm, end point and time course); type: biochemical; settings: for methylation activity compared with enzyme-only control: 0-120 min time course (Fig 6); for Difference between means ± SEM vs GST-HsPRMT7 + 10 uM Hs H2B (23-37), Fig5: 10 uM peptide, 4°C
Procedure: as §1, §2, §3

human PRMT7 = settings: relative to unsubstituted peptide; cited from earlier work
Procedure: Comparatively, a previous study of ionic strength in human HEK293 cells estimates the intracellular concentration of potassium ions to be about 120–140 mM in human cells. As such, our results in Fig 7 led us to question whether this dramatic decrease in activity may be associated with a loss of either substrate-enzyme binding affinity or catalytic activity. || We confirm that human PRMT7 activity is quite sensitive to changes in the RXR target sequence in the substrate protein. […] The exquisite specificity of PRMT7 toward the basic RXR motif can be contrasted to the much broader speci ...

[3] = no added salt, 5 μg GST-HsPRMT7, 0.14 μM [3H]-AdoMet, GraphPad Prism fit
[4] = no added salt, 5 μg GST-HsPRMT7, 0.14 μM [3H]-AdoMet, GraphPad Prism fit, read-out: Km, Michaelis-Menten best-fit value, Fig7
[5] = no added salt, 5 μg GST-HsPRMT7, 0.14 μM [3H]-AdoMet, experiments of Fig 7, read-out: apparent km (binding affinities), Fig 7
[6] = no added salt, apparent km of peptide substrate, 5 μg GST-HsPRMT7, various peptide concentrations, 0.14 μM [3H]-AdoMet, pH 9.5, Michaelis-Menten fit, triplicates (Fig 8), read-out: km
[7] = no salt, 5 μg GST-HsPRMT7, 0.14 μM [3H]-AdoMet, GraphPad Prism fit
[8] = no salt, 5 μg GST-HsPRMT7, 0.14 μM [3H]-AdoMet, GraphPad Prism fit, read-out: Km, Michaelis-Menten best-fit value, Fig8
[9] = 10 μM peptide, 5 μg GST-HsPRMT7, 25°C, in words
[10] = + 130 mM KCl, 5 μg GST-HsPRMT7, 0.14 μM [3H]-AdoMet, GraphPad Prism fit, read-out: Km, Michaelis-Menten best-fit value, Fig8
[11] = +130 mM KCl, apparent km, 5 μg GST-HsPRMT7, various peptide concentrations, 0.14 μM [3H]-AdoMet, pH 9.5, Michaelis-Menten fit, triplicates (Fig 8), read-out: km
[12] = from Table 2, no added salt, response to reviewers, RGG peptide apparently = Mono R

Vmax, Michaelis-Menten best-fit value, Fig7 (GST-HsPRMT7 [1]; [3]) | Km (GST-HsPRMT7 [1]; [4]) [µM] | Km (GST-HsPRMT7 [1]; [6]) [µM] | Vmax, Michaelis-Menten best-fit value, Fig8 (GST-HsPRMT7 [1]; [7]) | Km (GST-HsPRMT7 [1]; [8]) [µM] | Km (GST-HsPRMT7 [1]; [10]) [µM] | Km (GST-HsPRMT7 [1]; [11]) [µM] | Substance | change of Vmax after adding 130 mM KCl (GST-HsPRMT7 [1]) | PRMT7 activity with substituted human histone H2B (23–37) peptides (human PRMT7) | also measured
299.5 | 0.192 | 2.8 | 752.7 | 2.79 | – | – | Ac-KKGGRERGGKKY-NH2 [synthetic RXR peptide with glutamate within the motif] | – | – | Vmax, times lower than RKR (GST-HsPRMT7 [1]): 5–6 times; Km (GST-HsPRMT7 [1]; [5]): 2.8 µM
262.6 | 0.223 | 1.4 | 993.4 | 1.42 | 0.28 | – | Ac-KKGGRGGGGKKY-NH2 [Mono R, synthetic peptide with a single arginine flanked by glycine and lysine residues] | – | – | PRMT7 methylation activity (GST-HsPRMT7 [2]; 10 μM peptide, 5 μg GST-HsPRMT7, 0.14 μM [3H]-AdoMet, 20 h, 4°C (Fig 5), in words): barely detectable over the PRMT7-only control; methylation activity compared with enzyme-only control (GST-HsPRMT7 [2]; [9]): not significantly greater than control; Difference between means ± SEM vs GST-HsPRMT7 + 10 uM Hs H2B (23-37), Fig5 (GST-HsPRMT7 [2]; 20 h, n = 3, SEM): -4140 ± 625.1 cpm; Vmax, times lower than RKR (GST-HsPRMT7 [1]): 5–6 times; Km (GST-HsPRMT7 [1]; [5]): 1.4 µM
1036 | 0.682 | 0.7 | 2435 | 0.743 | 6.21 | 6.2 | Ac-KKGGRGRGGKKY-NH2 [synthetic peptide with an RGR motif flanked by glycine and lysine residues] | up to an approximately three-fold decrease | – | methylation activity (maximum value) (GST-HsPRMT7 [2]; 10 μM peptide, 5 μg GST-HsPRMT7, 0.14 μM [3H]-AdoMet, 25°C, t = 120 min (Fig 6), approximate): about 800 cpm; decrease of PRMT7 activity relative to human H2B (23–37) (GST-HsPRMT7 [2]; 10 μM peptide, 5 μg GST-HsPRMT7, 0.14 μM [3H]-AdoMet, 20 h, 4°C (Fig 5)): 4 to 5 fold; Difference between means ± SEM vs GST-HsPRMT7 + 10 uM Hs H2B (23-37), Fig5 (GST-HsPRMT7 [2]; 20 h, n = 3, SEM): -2852 ± 662.1 cpm; Vmax relative to the RGG peptide (GST-HsPRMT7 [1]; [12]): about 2.5 fold; apparent km relative to the RGG peptide (GST-HsPRMT7 [1]; [12]): about half
1042 | 0.5 | 0.5 | 969.7 | 0.514 | 2.43 | 2.4 | Ac-KKGGRGRKGKKY-NH2 [synthetic RXR peptide with an additional lysine after the RGR motif] | up to an approximately three-fold decrease | – | –
1749 | 0.759 | 0.6 | 1716 | 0.553 | 6.88 | 6.9 | Ac-KKGGRKRGGKKY-NH2 [synthetic RXR peptide with lysine within the motif] | up to an approximately three-fold decrease | – | –
1553 | 0.895 | 0.6 | 1150 | 0.601 | 3.35 | 3.3 | Ac-KKGKRGRGGKKY-NH2 [synthetic RXR peptide with an additional lysine before the RGR motif] | up to an approximately three-fold decrease | – | –
– | – | – | – | – | – | – | KKDGKKRRKSRKESY [Xl H2B (23–37), synthetic peptide of amino acids 23–37 of Xenopus laevis histone H2B, containing 29-RRKSR-33] | – | – | GST-HsPRMT7 methylation activity (GST-HsPRMT7 [2]; 10 μM peptide, 5 μg GST-HsPRMT7, 0.14 μM [3H]-AdoMet, 40 min, 25°C (Fig 3), in words): no significant methylation activity over background; methylation activity compared with enzyme-only control (GST-HsPRMT7 [2]; [9]): low methylation activity but was significantly above control; methylation by human PRMT7 (GST-HsPRMT7 [2]; 10 and 50 μM peptide, 5 μg GST-HsPRMT7, 25°C, 0-3 h time course (Fig 4), in words): methylated by human PRMT7, albeit at low levels; Mean of GST-HsPRMT7 + peptide, Fig3 (GST-HsPRMT7 [2]; mean of n = 3, 10 μM peptide, 40 min, 25°C): 98.42 cpm; Difference between means ± SEM vs peptide only, Fig3 (GST-HsPRMT7 [2]; n = 3, 10 μM peptide, 40 min, 25°C, SEM): 28.16 ± 17.00 cpm
– | – | – | – | – | – | – | R29K: human histone H2B (23–37) peptide with R29K substitution, from ref 11 (KKDGKKKKRSRKESY; not fully specified (N-terminus, C-terminus); UniProt P62807 24-38, looked up, variant R29K) | – | at least a two-thirds reduction | –
– | – | – | – | – | – | – | R31K-substituted human H2B (23–37): R31K-substituted human H2B (23–37) peptide, from ref 11 (KKDGKKRKKSRKESY; not fully specified (N-terminus, C-terminus); UniProt P62807 24-38, looked up, variant R31K) | – | no methyl-accepting activity | –
– | – | – | – | – | – | – | R33K: human histone H2B (23–37) peptide with R33K substitution, from ref 11 (KKDGKKRKRSKKESY; not fully specified (N-terminus, C-terminus); UniProt P62807 24-38, looked up, variant R33K) | – | at least a two-thirds reduction | –
